# Read-outs that look alike come from different tables or passages of the source.
# Assays:
# Experiment in all cases: cells
# [1] = test system: HT29, a human colorectal adenocarcinoma cell line; settings: HT-29, 72 h, read-out: Cell viability (%)
# [2] = test system: HT29, a human colorectal adenocarcinoma cell line; settings: 72 h, read-out: Cell viability (%)
# [3] = test system: HT29, a human colorectal adenocarcinoma cell line; settings: 72 h, read-out: Cell viability (%); remark: listed apart in the source
compound,measurement,setting,value
"O=c1[nH]cc(F)c(=O)[nH]1 [5-FU, 5-fluorouracil]",viability at 1 µM,[1],99.3 ± 21%
same,viability at 10 µM,[1],75.3 ± 12.4%
same,viability at 100 µM,[1],54.3 ± 10.2%
same,viability at 1000 µM,[1],40.3 ± 8.34%
same,viability at 1 µM,[2],100 ± 13.2%
same,viability at 1 µM,[3],100 ± 31.2%
